Data taken from US8748388B2, “Antitumoral compounds” (Pharma Mar, S.A., priority 2008, dated 2014).
Bridge positions count the residues as written; N and C are the ends. Square brackets hold non-standard residues; d marks the D form. Peptide text beside a SMILES is read from it. I, II: the chains in the order shown. * marks the point of attachment. Quinaldoyl(3-OH) = O=C(c1nc2ccccc2cc1O)*; NMeC = CN[C@@H](CS)C(=O)O; dDap = NC[C@@H](N)C(=O)O

Key:
HT29 = assay: SRB colorimetric cytotoxicity assay, HT29; assay type: cell-based, human; conditions: HT29, 48 hours exposure; for CC50: read-out: LC50 (the source's name)
Excerpt: (§1) The aim of this assay is to evaluate the in vitro cytostatic (ability to delay or arrest tumor cell growth) or cytotoxic (ability to kill tumor cells) activity of the samples being tested.
(§2) A colorimetric type of assay, using sulforhodamine B (SRB) reaction has been adapted for a quantitative measurement of cell growth and viability (following the technique described by Skehan P et al. J. Natl. Cancer Inst. 1990, 82, 1107-1112).
(§3) This form of assay employs SBS-standard 96-well cell culture microplates (Faircloth et al. Methods in cell science, 1988, 11(4), 201-205; Mosmann et al. Journal of. Immunological. Methods, 1983, 65(1-2), 55-63). All the cell lines used in this study, derived from different types of human cancer, were obtained from the American Type Culture Collection (ATCC).
(§4) Cells were maintained in Dulbecco's Modified Eagle Medium (DMEM) supplemented with 10% Fetal Bovine Serum (FBS), 2 mM L-glutamine, 100 U/mL penicillin and 100 U/mL streptomycin at 37° C., 5% CO2 and 98% humidity. For the experiments, cells were harvested from subconfluent cultures using trypsinization and resuspended in fresh medium before counting and plating.
(§5) Cells were seeded in 96 well microtiter plates at 5×10^3 cells per well in aliquots of 150 μL, and allowed to attach to the plate surface for 18 hours in drug free medium. One control (untreated) plate of each cell line was fixed (as described below) and used for time zero reference value. Afterwards, test samples were added to the cultures in ten serial dilutions, in aliquots of 50 μL, ranging from 10 to 0.00262 μg/mL. After 48 hours exposure, the antitumor effect was estimated by the SRB method: Briefly, cells were washed twice with PBS, fixed for 15 min in 1% glutaraldehyde solution, rinsed twice in PBS, and stained in 0.4% SRB solution for 30 min at room temperature. Cells were then rinsed several times with 1% acetic acid solution and air-dried. SRB was then extracted in 10 mM trizma base solution and the absorbance measured in an automated spectrophotometric plate reader at 490 nm. Cell survival was expressed as percentage of control cell growth. The final effect of the sample being tested was estimated by applying the NCl algorithm (Boyd M R and Paull K D. Drug Dev. Res. 1995, 34, 91-104).
(§6) Using the mean±SD of triplicate cultures, a dose-response curve was automatically generated using nonlinear regression analysis. Three reference parameters were calculated (NCl algorithm) by automatic interpolation: GI50=concentration that produces 50% growth inhibition; TGI=total growth inhibition (cytostatic effect) and LC50=concentration that produces 50% net cell killing (cytotoxic effect).

A549 = assay: SRB colorimetric cytotoxicity assay, A549; assay type: cell-based, human; conditions: A549, 48 hours exposure; for CC50: read-out: LC50 (the source's name)
Excerpt: as §1, §2, §3, §4, §5, §6

MDA-MB-231 = assay: SRB colorimetric cytotoxicity assay, MDA-MB-231; assay type: cell-based, human; conditions: MDA-MB-231, 48 hours exposure; for CC50: read-out: LC50 (the source's name)
Excerpt: as §1, §2, §3, §4, §5, §6

leukemia cell line L1210 = conditions: Boger and Lee 2000; cited from earlier work

CSC[C@H]1C(=O)NC[C@@H](NC(=O)c2nc3ccccc3cc2O)C(=O)NCC(=O)N(C)[C@H]2CSSC[C@@H](C(=O)N1C)N(C)C(=O)CNC(=O)[C@H](NC(=O)c1nc3ccccc3cc1O)CNC(=O)[C@H](CSC)N(C)C2=O [Azathiocoraline] (I: {Quinaldoyl(3-OH)}-[dDap]G[NMeC][NMeC](Me) / II: {Quinaldoyl(3-OH)}-[dDap]G[NMeC][NMeC](Me); amide I:1-II:C, I:C-II:1; disulfide I:3-II:3)
GI50 (HT29): 3120 nM
TGI (HT29): >8.90E−06 Molar
CC50 (HT29): > 8900 nM
GI50 (A549): 3740 nM
TGI (A549): >8.90E−06 Molar
CC50 (A549): > 8900 nM
GI50 (MDA-MB-231): 2140 nM
TGI (MDA-MB-231): >8.90E−06 Molar
CC50 (MDA-MB-231): > 8900 nM

Azatriostin A
cytotoxic activity compared with Triostin A (leukemia cell line L1210): two orders of magnitude less active

CSC[C@H]1C(=O)N(C)C[C@@H](NC(=O)c2nc3ccccc3cc2O)C(=O)NCC(=O)N(C)[C@H]2CSSC[C@@H](C(=O)N1C)N(C)C(=O)CNC(=O)[C@H](NC(=O)c1nc3ccccc3cc1O)CN(C)C(=O)[C@H](CSC)N(C)C2=O [Compound 2, {[3-HQA-D-Dap(Me&^1)-Gly-NMeCys(&^2)—NMe-Cys(Me)&^3][3-HQA-D-Dap(Me&^3)-Gly-NMeCys(&^2)—NMe-Cys(Me)&^1]]
GI50 (HT29): 20.8 nM
TGI (HT29): 1.13E−07 Molar
CC50 (HT29): 747 nM
GI50 (A549): 3.39 nM
TGI (A549): 2.00E−08 Molar
CC50 (A549): 165 nM
GI50 (MDA-MB-231): 4.08 nM
TGI (MDA-MB-231): 4.26E−08 Molar
CC50 (MDA-MB-231): 373 nM
